Publication PMC5218480 (PLoS ONE, 2017)

System: MV-4-11 cells
Assay: Gene expression microarray analysis (Affymetrix PrimeView) and GSEA
Type: cell-based, human
Parameters: RFU PODN (11730768_x_at) / Fold change /veh PODN (11730768_x_at) / RFU LINC00158 (11744669_a_at) / Fold change /veh LINC00158 (11744669_a_at) / RFU DUSP10 (11751237_a_at) / Fold change /veh DUSP10 (11751237_a_at) / RFU ID3 (11757404_x_at) / Fold change /veh ID3 (11757404_x_at) / RFU PLEKHG5 (11737974_s_at) / Fold change /veh PLEKHG5 (11737974_s_at) / RFU LRRC4B (11730491_at) / Fold change /veh LRRC4B (11730491_at) / RFU GIMAP4 (11747438_a_at) / Fold change /veh GIMAP4 (11747438_a_at) / RFU KRT8 (11758183_x_at) / Fold change /veh KRT8 (11758183_x_at) / RFU CNN1 (11734310_a_at) / Fold change /veh CNN1 (11734310_a_at) / RFU VPS37D (11726825_at) / Fold change /veh VPS37D (11726825_at) / RFU C10orf10 (11716522_x_at) / Fold change /veh C10orf10 (11716522_x_at) / RFU KIR2DL2 /// KIR2DL4 /// KIR2DL5A /// KIR2DL5B /// KIR2DS1 /// KIR2DS2 /// KIR2DS3 /// KIR2DS4 /// KIR3DL3 /// KIR3DL3 /// KIR3DS1 (11738374_at) / Fold change /veh KIR2DL2 /// KIR2DL4 /// KIR2DL5A /// KIR2DL5B /// KIR2DS1 /// KIR2DS2 /// KIR2DS3 /// KIR2DS4 /// KIR3DL3 /// KIR3DL3 /// KIR3DS1 (11738374_at) / RFU C1QL1 (11718748_at) / Fold change /veh C1QL1 (11718748_at) / RFU TMPRSS4 (11747572_a_at) / Fold change /veh TMPRSS4 (11747572_a_at) / RFU HAMP (11756126_x_at) / Fold change /veh HAMP (11756126_x_at) / RFU RNFT2 (11725882_a_at) / Fold change /veh RNFT2 (11725882_a_at) / RFU NR4A2 (11747474_a_at) / Fold change /veh NR4A2 (11747474_a_at) / RFU ABCC12 (11746883_a_at) / Fold change /veh ABCC12 (11746883_a_at) / RFU TMEM136 (11760407_x_at) / Fold change /veh TMEM136 (11760407_x_at) / RFU CLDN22 /// WWC2 (11732394_at) / Fold change /veh CLDN22 /// WWC2 (11732394_at) / RFU HLA-DPB1 (11760878_x_at) / Fold change /veh HLA-DPB1 (11760878_x_at) / RFU SPINT1 (11716480_a_at) / Fold change /veh SPINT1 (11716480_a_at) / RFU GAP43 (11754022_s_at) / Fold change /veh GAP43 (11754022_s_at) / RFU A4GNT (11735810_at) / Fold change /veh A4GNT (11735810_at) / RFU PRB3 (11715151_x_at) / Fold change /veh PRB3 (11715151_x_at) / RFU TUBB4B (11761932_at) / Fold change /veh TUBB4B (11761932_at) / RFU CAPN14 (11732068_a_at) / Fold change /veh CAPN14 (11732068_a_at) / RFU TMCC2 (11721928_a_at) / Fold change /veh TMCC2 (11721928_a_at) / RFU IRGQ (11745062_a_at) / Fold change /veh IRGQ (11745062_a_at) / RFU FAM174B (11720279_a_at) / Fold change /veh FAM174B (11720279_a_at) / RFU TMPRSS4 (11748680_a_at) / Fold change /veh TMPRSS4 (11748680_a_at) / RFU FAM212B (11763350_a_at) / Fold change /veh FAM212B (11763350_a_at) / RFU PLEKHG5 (11743358_a_at) / Fold change /veh PLEKHG5 (11743358_a_at) / RFU ZSCAN30 (11745921_a_at) / Fold change /veh ZSCAN30 (11745921_a_at) / RFU CMKLR1 (11741424_a_at) / Fold change /veh CMKLR1 (11741424_a_at) / RFU LOC101060620 /// MAPK8IP1 (11723275_at) / Fold change /veh LOC101060620 /// MAPK8IP1 (11723275_at) / RFU SPTSSB (11747773_x_at) / Fold change /veh SPTSSB (11747773_x_at) / RFU PRSS12 (11739890_at) / Fold change /veh PRSS12 (11739890_at) / RFU BIN1 (11741810_x_at) / Fold change /veh BIN1 (11741810_x_at) / RFU WNT11 (11732464_a_at) / Fold change /veh WNT11 (11732464_a_at) / RFU C10orf10 (11716521_a_at) / Fold change /veh C10orf10 (11716521_a_at) / RFU C5orf56 (11738089_at) / Fold change /veh C5orf56 (11738089_at) / RFU CYB561 (11721691_x_at) / Fold change /veh CYB561 (11721691_x_at) / RFU ANKRD19P (11752326_a_at) / Fold change /veh ANKRD19P (11752326_a_at) / RFU OR2T12 /// OR2T33 /// OR2T8 (11738714_s_at) / Fold change /veh OR2T12 /// OR2T33 /// OR2T8 (11738714_s_at) / RFU VCAN (11748164_a_at) / Fold change /veh VCAN (11748164_a_at) / RFU JSRP1 (11732532_at) / Fold change /veh JSRP1 (11732532_at) / RFU KRTAP10-11 (11738290_x_at) / Fold change /veh KRTAP10-11 (11738290_x_at) / RFU MYO3A (11730013_a_at) / Fold change /veh MYO3A (11730013_a_at) / RFU EBF3 (11725865_a_at) / Fold change /veh EBF3 (11725865_a_at) / RFU CAMK2N1 (11719241_x_at) / Fold change /veh CAMK2N1 (11719241_x_at) / RFU C5orf56 (11738088_a_at) / Fold change /veh C5orf56 (11738088_a_at) / RFU OLFML3 (11715873_a_at) / Fold change /veh OLFML3 (11715873_a_at) / RFU LOC100653217 /// NTM (11731650_a_at) / Fold change /veh LOC100653217 /// NTM (11731650_a_at) / RFU MAPK11 (11762145_a_at) / Fold change /veh MAPK11 (11762145_a_at) / RFU FIZ1 (11724087_x_at) / Fold change /veh FIZ1 (11724087_x_at) / RFU OASL (11726364_x_at) / Fold change /veh OASL (11726364_x_at) / RFU SOX15 (11748057_x_at) / Fold change /veh SOX15 (11748057_x_at) / RFU CD79A (11719716_a_at) / Fold change /veh CD79A (11719716_a_at) / RFU HIST1H1D (11736915_at) / Fold change /veh HIST1H1D (11736915_at) / RFU CASKIN2 (11723855_a_at) / Fold change /veh CASKIN2 (11723855_a_at) / RFU LOC730098 (11760151_x_at) / Fold change /veh LOC730098 (11760151_x_at) / RFU OR4N2 (11742367_at) / Fold change /veh OR4N2 (11742367_at) / RFU PRRT2 (11749266_a_at) / Fold change /veh PRRT2 (11749266_a_at) / RFU SNX32 (11753110_a_at) / Fold change /veh SNX32 (11753110_a_at) / RFU CDHR5 (11726645_a_at) / Fold change /veh CDHR5 (11726645_a_at) / RFU RCAN1 (11760418_a_at) / Fold change /veh RCAN1 (11760418_a_at) / RFU FAM167A (11723789_a_at) / Fold change /veh FAM167A (11723789_a_at) / RFU FAM26E (11764081_at) / Fold change /veh FAM26E (11764081_at) / RFU ISYNA1 (11749810_s_at) / Fold change /veh ISYNA1 (11749810_s_at) / RFU ACY1 (11761880_at) / Fold change /veh ACY1 (11761880_at) / RFU 11764098_at / Fold change /veh 11764098_at / RFU SAMD14 (11745864_x_at) / Fold change /veh SAMD14 (11745864_x_at) / RFU NPB (11741838_a_at) / Fold change /veh NPB (11741838_a_at) / RFU TMPRSS6 (11731388_a_at) / Fold change /veh TMPRSS6 (11731388_a_at) / RFU KRTAP10-2 (11738614_at) / Fold change /veh KRTAP10-2 (11738614_at) / RFU ARHGAP8 /// PRR5-ARHGAP8 (11727945_x_at) / Fold change /veh ARHGAP8 /// PRR5-ARHGAP8 (11727945_x_at) / RFU KRTAP5-7 /// NADSYN1 (11734609_at) / Fold change /veh KRTAP5-7 /// NADSYN1 (11734609_at) / RFU RASL12 (11751679_a_at) / Fold change /veh RASL12 (11751679_a_at) / RFU CDKN2B (11736163_a_at) / Fold change /veh CDKN2B (11736163_a_at) / RFU PRF1 (11729649_at) / Fold change /veh PRF1 (11729649_at) / RFU, ZNF638 /// ZNF638-IT1 / Fold change vs veh, ZNF638 /// ZNF638-IT1 / RFU, PANK3 / Fold change vs veh, PANK3 / RFU, SH3YL1 / Fold change vs veh, SH3YL1 / RFU, ZEB2 / Fold change vs veh, ZEB2 / RFU, NRIP1 / Fold change vs veh, NRIP1 / RFU, PTTG1IP / Fold change vs veh, PTTG1IP / RFU, CAPN2 / Fold change vs veh, CAPN2 / RFU, MED14 / Fold change vs veh, MED14 / RFU, SNORA58 / Fold change vs veh, SNORA58 / RFU, C1orf63 / Fold change vs veh, C1orf63 / RFU, LRRFIP1 / Fold change vs veh, LRRFIP1 / RFU, NDUFAF7 / Fold change vs veh, NDUFAF7 / RFU, SLC12A2 / Fold change vs veh, SLC12A2 / RFU, IBTK / Fold change vs veh, IBTK / RFU, ESF1 / Fold change vs veh, ESF1 / Fold change vs veh, TMEM50B / RFU, TAOK1 / Fold change vs veh, TAOK1 / RFU, ACBD3 / Fold change vs veh, ACBD3 / RFU, TMA16 / Fold change vs veh, TMA16 / RFU, RWDD3 / Fold change vs veh, RWDD3 / RFU, BCAT1 / Fold change vs veh, BCAT1 / RFU, EDEM3 / Fold change vs veh, EDEM3 / RFU, TMEM33 / Fold change vs veh, TMEM33 / RFU, WDR75 / Fold change vs veh, WDR75 / RFU, AHCTF1 / Fold change vs veh, AHCTF1 / RFU, TFRC / Fold change vs veh, TFRC / RFU, ZDHHC17 / Fold change vs veh, ZDHHC17 / RFU, NOM1 / Fold change vs veh, NOM1 / RFU, ARL8B / Fold change vs veh, ARL8B / RFU, ZBTB11 / Fold change vs veh, ZBTB11 / RFU, TAMM41 / Fold change vs veh, TAMM41 / RFU, KIAA1704 /// LOC100996395 / Fold change vs veh, KIAA1704 /// LOC100996395 / RFU, ING1 / Fold change vs veh, ING1 / RFU, TRMT61B / Fold change vs veh, TRMT61B / RFU, FUBP3 / Fold change vs veh, FUBP3 / RFU, TP53 / Fold change vs veh, TP53 / RFU, TNKS2 / Fold change vs veh, TNKS2 / RFU, ZFP14 / Fold change vs veh, ZFP14 / RFU, ACTR2 / Fold change vs veh, ACTR2 / RFU, PPP3R1 / Fold change vs veh, PPP3R1 / RFU, PIK3R1 / Fold change vs veh, PIK3R1 / RFU, HNRNPA1 / Fold change vs veh, HNRNPA1 / RFU, RNF170 / Fold change vs veh, RNF170 / RFU, ZNF28 / Fold change vs veh, ZNF28 / RFU, RNGTT / Fold change vs veh, RNGTT / RFU, OGT / Fold change vs veh, OGT / RFU, BRD1 / Fold change vs veh, BRD1 / RFU, MARS / Fold change vs veh, MARS / RFU, ZNF655 / Fold change vs veh, ZNF655 / RFU, FAHD1 / Fold change vs veh, FAHD1 / RFU, BDP1 / Fold change vs veh, BDP1 / RFU, LRRCC1 / Fold change vs veh, LRRCC1 / RFU, ARID1A / Fold change vs veh, ARID1A / RFU, ZNF146 / Fold change vs veh, ZNF146 / RFU, ZNF330 / Fold change vs veh, ZNF330 / RFU, GPN3 / Fold change vs veh, GPN3 / RFU, C9orf123 / Fold change vs veh, C9orf123 / RFU, N4BP2L2 / Fold change vs veh, N4BP2L2 / RFU, ARFIP1 / Fold change vs veh, ARFIP1 / RFU, FAM179B / Fold change vs veh, FAM179B / RFU, BCL10 / Fold change vs veh, BCL10 / RFU, UHRF1BP1L / Fold change vs veh, UHRF1BP1L / RFU, BET1 / Fold change vs veh, BET1 / RFU, CNOT2 / Fold change vs veh, CNOT2 / RFU, ZNF268 / Fold change vs veh, ZNF268 / Fold change vs veh, ZNF507 / RFU, DGCR2 / Fold change vs veh, DGCR2 / RFU, WDSUB1 / Fold change vs veh, WDSUB1 / Fold change vs veh, HSP90B1 /// MIR3652 / RFU, ADSS / Fold change vs veh, ADSS / RFU, GK / Fold change vs veh, GK / RFU, ZNF148 / Fold change vs veh, ZNF148 / RFU, TAF9 / Fold change vs veh, TAF9 / RFU, SLC1A5 / Fold change vs veh, SLC1A5 / RFU, SLMO2 / Fold change vs veh, SLMO2 / RFU, ABCC4 / Fold change vs veh, ABCC4 / RFU, LOC101060439 /// RAP1B / Fold change vs veh, LOC101060439 /// RAP1B / RFU, RFX7 / Fold change vs veh, RFX7 / RFU, GTPBP10 / Fold change vs veh, GTPBP10 / RFU, CNEP1R1 / Fold change vs veh, CNEP1R1 / RFU, BIVM-ERCC5 /// ERCC5 / Fold change vs veh, BIVM-ERCC5 /// ERCC5 / RFU, ILF3 / Fold change vs veh, ILF3 / RFU 11762660_at / Fold change /veh 11762660_at / RFU VCAN (11757783_s_at) / Fold change /veh VCAN (11757783_s_at) / RFU DDX43 (11728927_at) / Fold change /veh DDX43 (11728927_at) / RFU KRT8 (11758188_x_at) / Fold change /veh KRT8 (11758188_x_at) / RFU NKD1 (11759106_at) / Fold change /veh NKD1 (11759106_at) / RFU SRD5A1 (11742802_a_at) / Fold change /veh SRD5A1 (11742802_a_at) / RFU TPSAB1 /// TPSB2 (11721975_s_at) / Fold change /veh TPSAB1 /// TPSB2 (11721975_s_at) / RFU GSTM3 (11746129_a_at) / Fold change /veh GSTM3 (11746129_a_at) / RFU IL23R (11737362_x_at) / Fold change /veh IL23R (11737362_x_at) / RFU TMEM51 (11727254_a_at) / Fold change /veh TMEM51 (11727254_a_at) / RFU PIWIL2 (11732686_x_at) / Fold change /veh PIWIL2 (11732686_x_at) / RFU ORM1 (11744905_x_at) / Fold change /veh ORM1 (11744905_x_at) / RFU CCDC152 (11743942_at) / Fold change /veh CCDC152 (11743942_at) / RFU ECM1 (11717891_a_at) / Fold change /veh ECM1 (11717891_a_at) / RFU IL23R (11748794_a_at) / Fold change /veh IL23R (11748794_a_at) / RFU TNFAIP8L3 (11732012_x_at) / Fold change /veh TNFAIP8L3 (11732012_x_at) / RFU MBOAT4 (11741988_at) / Fold change /veh MBOAT4 (11741988_at) / RFU 11764193_at / Fold change /veh 11764193_at / RFU TMEM53 (11763286_at) / Fold change /veh TMEM53 (11763286_at) / RFU MAGEB2 (11727129_at) / Fold change /veh MAGEB2 (11727129_at) / RFU TMEM200A (11744735_a_at) / Fold change /veh TMEM200A (11744735_a_at) / RFU CCDC152 (11751479_a_at) / Fold change /veh CCDC152 (11751479_a_at) / RFU FAM211A (11726209_a_at) / Fold change /veh FAM211A (11726209_a_at) / RFU RGS16 (11746705_a_at) / Fold change /veh RGS16 (11746705_a_at) / RFU VCAN (11755009_s_at) / Fold change /veh VCAN (11755009_s_at) / RFU RHOB (11743442_s_at) / Fold change /veh RHOB (11743442_s_at) / RFU RGS16 (11720943_a_at) / Fold change /veh RGS16 (11720943_a_at) / RFU RGS16 (11720944_at) / Fold change /veh RGS16 (11720944_at) / RFU, VPS4B / Fold change vs veh, VPS4B / RFU, CREB1 / Fold change vs veh, CREB1 / RFU, DNAJC13 / Fold change vs veh, DNAJC13 / RFU, GNAQ / Fold change vs veh, GNAQ / RFU, CDK5R1 / Fold change vs veh, CDK5R1 / RFU, ZRANB3 / Fold change vs veh, ZRANB3 / RFU, CUL4A / Fold change vs veh, CUL4A / RFU, CCNY / Fold change vs veh, CCNY / RFU, UFL1 / Fold change vs veh, UFL1 / RFU, COG3 / Fold change vs veh, COG3 / RFU, DIAPH2 / Fold change vs veh, DIAPH2 / RFU, SKA2 / Fold change vs veh, SKA2 / RFU, AFF3 / Fold change vs veh, AFF3 / RFU, LMF1 / Fold change vs veh, LMF1 / RFU, IPO11 / Fold change vs veh, IPO11 / RFU, DFFB / Fold change vs veh, DFFB / RFU, FOXP1 / Fold change vs veh, FOXP1 / RFU, CARD8 / Fold change vs veh, CARD8 / RFU, STRN3 / Fold change vs veh, STRN3 / RFU, ADK / Fold change vs veh, ADK / RFU, RASSF2 / Fold change vs veh, RASSF2 / RFU, WIPF1 / Fold change vs veh, WIPF1 / RFU, LARP1B / Fold change vs veh, LARP1B / RFU, RASA1 / Fold change vs veh, RASA1 / RFU, RB1 / Fold change vs veh, RB1 / RFU, PPFIA1 / Fold change vs veh, PPFIA1 / RFU, MAT2A / Fold change vs veh, MAT2A / RFU, CCT5 / Fold change vs veh, CCT5 / RFU, WDR92 / Fold change vs veh, WDR92 / RFU, CUX1 / Fold change vs veh, CUX1 / RFU, TTC7A / Fold change vs veh, TTC7A / RFU, TMEM135 / Fold change vs veh, TMEM135 / RFU, DEPTOR / Fold change vs veh, DEPTOR / RFU, CPM / Fold change vs veh, CPM / RFU, DNAJB6 / Fold change vs veh, DNAJB6 / RFU, CACNA2D3 / Fold change vs veh, CACNA2D3 / RFU, DTX4 / Fold change vs veh, DTX4 / RFU, TFCP2 / Fold change vs veh, TFCP2 / RFU, GMCL1 /// GMCL1P1 / Fold change vs veh, GMCL1 /// GMCL1P1 / RFU, AEBP2 / Fold change vs veh, AEBP2 / RFU, SNHG1 /// SNORD22 /// SNORD25 /// SNORD26 /// SNORD27 /// SNORD28 /// SNORD29 /// SNORD31 / Fold change vs veh, SNHG1 /// SNORD22 /// SNORD25 /// SNORD26 /// SNORD27 /// SNORD28 /// SNORD29 /// SNORD31 / Fold change (Aza/veh), C12orf56 (ProbeSet 11735607_a_at) / Fold change (ACY-1035/veh), C12orf56 (ProbeSet 11735607_a_at) / Fold change (Aza/veh), FGFR1OP (ProbeSet 11751329_s_at) / Fold change (ACY-1035/veh), FGFR1OP (ProbeSet 11751329_s_at) / Fold change (Aza/veh), VPS36 (ProbeSet 11739960_a_at) / Fold change (ACY-1035/veh), VPS36 (ProbeSet 11739960_a_at) / RFU SYPL1 (11715823_x_at) / Fold change /veh SYPL1 (11715823_x_at) / RFU IGFBP7 (11715501_s_at) / Fold change /veh IGFBP7 (11715501_s_at) / RFU REEP3 (11722064_at) / Fold change /veh REEP3 (11722064_at) / RFU IGLL1 (11728026_x_at) / Fold change /veh IGLL1 (11728026_x_at): dose or concentration left out as unconfirmed
Details: MV-4-11 cells, 48 hours

## Nc1ncn([C@@H]2O[C@H](CO)[C@@H](O)[C@H]2O)c(=O)n1 [azacitidine]
  RFU A4GNT (11735810_at): 14.85 RFU
